# In patent publication US11612661B2 (priority 2019, dated 2023):
# Numbered stars: 1 amine (or outer) side, 2 acyl side, 3 side chain; on linkers, the order of the positions; unused ones are H or OH. Bridge positions count the residues as written; N and C are the ends. Square brackets hold non-standard residues; d marks the D form. Triazole bridges read from a SMILES are 1,4-linked. Peptide text beside a SMILES is read from it. Gly(αS-SH) = O=C([C@@H](N[*:1])S[*:3])[*:2]; Tyr(3-I) = N[C@@H](Cc1ccc(O)c(I)c1)C(=O)O; Orn(N3) = [N-]=[N+]=NCCC[C@H](N)C(=O)O; Dap(N3) = [N-]=[N+]=NC[C@H](N)C(=O)O; Aha = [N-]=[N+]=NCC[C@H](N)C(=O)O; Cit = NC(=O)NCCC[C@H](N)C(=O)O; Hpra = C#CCC[C@H](N)C(=O)O; Pra = C#CC[C@H](N)C(=O)O
# What was measured:
# [1] = target: human α9α10 nAChR (Homo sapiens, UniProt Q9GZZ6+Q9UGM1); assay: cell-based; assay type: cell-based
# [2] = target: rat α9α10 nAChR (Rattus norvegicus, UniProt P43144+Q9JLB5); assay: cell-based; assay type: cell-based; conditions: α9α10 nAChR IC50 (nM) Rat
# Sequence of rat α9α10 nAChR (P43144 26-479 limits assumed): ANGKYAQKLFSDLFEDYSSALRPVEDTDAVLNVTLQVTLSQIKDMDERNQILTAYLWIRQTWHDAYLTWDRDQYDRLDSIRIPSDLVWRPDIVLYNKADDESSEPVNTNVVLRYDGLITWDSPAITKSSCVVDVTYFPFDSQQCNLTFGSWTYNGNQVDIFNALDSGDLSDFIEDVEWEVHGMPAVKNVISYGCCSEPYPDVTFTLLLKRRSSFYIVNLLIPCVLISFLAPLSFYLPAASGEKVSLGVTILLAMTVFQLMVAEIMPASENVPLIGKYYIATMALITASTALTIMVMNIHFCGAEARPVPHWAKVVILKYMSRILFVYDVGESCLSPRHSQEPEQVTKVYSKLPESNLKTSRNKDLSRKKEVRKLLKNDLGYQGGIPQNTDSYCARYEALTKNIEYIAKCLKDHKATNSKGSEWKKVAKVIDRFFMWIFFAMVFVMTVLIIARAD
# Sequence of rat α9α10 nAChR (Q9JLB5 25-447 limits assumed): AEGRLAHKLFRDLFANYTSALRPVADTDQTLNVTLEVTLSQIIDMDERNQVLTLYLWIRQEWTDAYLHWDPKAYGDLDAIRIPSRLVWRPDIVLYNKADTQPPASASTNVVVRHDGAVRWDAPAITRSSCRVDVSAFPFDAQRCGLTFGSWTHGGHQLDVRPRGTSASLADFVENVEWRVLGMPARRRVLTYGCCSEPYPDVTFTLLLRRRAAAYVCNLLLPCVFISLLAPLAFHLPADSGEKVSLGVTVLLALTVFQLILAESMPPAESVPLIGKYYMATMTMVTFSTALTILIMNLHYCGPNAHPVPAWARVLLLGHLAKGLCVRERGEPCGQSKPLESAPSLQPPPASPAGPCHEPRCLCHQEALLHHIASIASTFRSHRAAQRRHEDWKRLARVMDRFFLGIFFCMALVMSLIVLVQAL
# Sequence of human α9α10 nAChR (Q9UGM1 26-479 limits assumed): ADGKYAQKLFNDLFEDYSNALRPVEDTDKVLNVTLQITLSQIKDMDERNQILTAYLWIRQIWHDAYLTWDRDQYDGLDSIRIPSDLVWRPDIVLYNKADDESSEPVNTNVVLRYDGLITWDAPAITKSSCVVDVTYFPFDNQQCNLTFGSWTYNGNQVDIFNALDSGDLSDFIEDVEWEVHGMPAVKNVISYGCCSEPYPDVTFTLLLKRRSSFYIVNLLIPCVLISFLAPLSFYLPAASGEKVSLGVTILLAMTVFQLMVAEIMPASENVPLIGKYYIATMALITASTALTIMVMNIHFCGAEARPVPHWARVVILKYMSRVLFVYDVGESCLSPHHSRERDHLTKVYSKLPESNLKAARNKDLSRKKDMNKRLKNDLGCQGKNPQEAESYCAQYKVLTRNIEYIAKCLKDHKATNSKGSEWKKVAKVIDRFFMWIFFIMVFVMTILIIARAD
# Sequence of human α9α10 nAChR (Q9GZZ6 25-450 limits assumed): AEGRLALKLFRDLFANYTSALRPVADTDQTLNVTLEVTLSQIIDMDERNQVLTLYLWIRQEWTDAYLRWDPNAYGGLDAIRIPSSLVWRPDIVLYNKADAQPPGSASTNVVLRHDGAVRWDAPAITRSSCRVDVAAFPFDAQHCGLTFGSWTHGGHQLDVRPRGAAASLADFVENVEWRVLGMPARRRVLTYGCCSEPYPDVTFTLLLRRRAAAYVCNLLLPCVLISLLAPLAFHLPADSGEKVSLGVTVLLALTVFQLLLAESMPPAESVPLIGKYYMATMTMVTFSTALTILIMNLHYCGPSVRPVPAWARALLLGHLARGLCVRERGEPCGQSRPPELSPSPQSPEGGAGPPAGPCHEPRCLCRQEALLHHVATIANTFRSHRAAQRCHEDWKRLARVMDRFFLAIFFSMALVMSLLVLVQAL
Compound,IC50 [1] [nM],IC50 [2] [nM]
"C[C@@H](O)[C@@H]1NC(=O)[C@@H]2Cc3cn(nn3)CCC[C@@H](C(=O)N[C@@H](Cc3ccc(O)cc3)C(=O)O)NC(=O)[C@H](CCC(N)=O)NC(=O)[C@H](Cc3ccc(O)c(I)c3)NC(=O)[C@H](CCCNC(N)=O)NC(=O)[C@H](CSSC[C@H](NC(=O)CN)C(=O)N2)NC(=O)[C@H](CCCNC(=N)N)NC(=O)[C@@H]2CCCN2C(=O)[C@H](CC(=O)O)NC1=O [Ib, L-tyrosine, glycyl-L-cysteinyl-L-alanyl-L-threonyl-L-α-aspartyl-L-prolyl-L-arginyl-L-cysteinyl-N5-(aminocarbonyl)-L-ornithyl-L-3-iodotyrosyl-L-glutaminyl-L-norvalyl-cyclic (2→8)-disulfide-cyclic 3^3,12^5-(1H-1,2,3-triazole-4,1-diyl)] (H-GC[Pra]TDPRC[Cit][Tyr(3-I)]Q[Orn(N3)]Y-OH; disulfide 2-8; triazole 3-12)",37 ± 1.3,7
"C[C@@H](O)[C@@H]1NC(=O)[C@H]2NC(=O)[C@@H](NC(=O)CN)Cc3cn(nn3)CCC[C@H](NC(=O)[C@H](CCCNC(=N)N)NC(=O)[C@@H]3CCCN3C(=O)[C@H](CC(=O)O)NC1=O)C(=O)N[C@@H](CCCNC(N)=O)C(=O)N[C@@H](Cc1ccc(O)c(I)c1)C(=O)N[C@@H](CCC(N)=O)C(=O)N[C@H](C(=O)N[C@@H](Cc1ccc(O)cc1)C(N)=O)CSS2 [Ic, L-tyrosinamide, glycyl-L-alanyl-L-cysteinyl-L-threonyl-L-α-aspartyl-L-prolyl-L-arginyl-L-norvalyl-N5-(aminocarbonyl)-L-ornithyl-L-3-iodotyrosyl-L-glutaminyl-L-cysteinyl-cyclic 2^3,8^5-(1H-1,2,3-triazole-4,1-diyl)-cyclic-(3→12)-disulfide] (H-G[Pra][Gly(αS-SH)]TDPR[Orn(N3)][Cit][Tyr(3-I)]QCY-NH2; triazole 2-8; disulfide 3-12)",152 ± 71,69 ± 8.5
"C[C@@H](O)[C@@H]1NC(=O)[C@H]2NC(=O)[C@@H](NC(=O)CN)CCCn3cc(nn3)C[C@H](NC(=O)[C@H](CCCNC(=N)N)NC(=O)[C@@H]3CCCN3C(=O)[C@H](CC(=O)O)NC1=O)C(=O)N[C@@H](CCCNC(N)=O)C(=O)N[C@@H](Cc1ccc(O)c(I)c1)C(=O)N[C@@H](CCC(N)=O)C(=O)N[C@H](C(=O)N[C@@H](Cc1ccc(O)cc1)C(N)=O)CSS2 [Id, L-tyrosinamide, glycyl-L-norvalyl-L-cysteinyl-L-threonyl-L-α-aspartyl-L-prolyl-L-arginyl-L-alanyl-N5-(aminocarbonyl)-L-ornithyl-L-3-iodotyrosyl-L-glutaminyl-L-cysteinyl-cyclic 2^5,8^3-(1H-1,2,3-triazole-1,4-diyl)-cyclic-(3→12)-disulfide] (H-G[Orn(N3)][Gly(αS-SH)]TDPR[Pra][Cit][Tyr(3-I)]QCY-NH2; triazole 2-8; disulfide 3-12)",≥ 1000,≥ 1000
"C[C@@H](O)[C@@H]1NC(=O)[C@@H]2CCCn3cc(nn3)C[C@@H](C(=O)N[C@@H](Cc3ccc(O)cc3)C(N)=O)NC(=O)[C@H](CCC(N)=O)NC(=O)[C@H](Cc3ccc(O)c(I)c3)NC(=O)[C@H](CCCNC(N)=O)NC(=O)[C@H](CSSC[C@H](NC(=O)CN)C(=O)N2)NC(=O)[C@H](CCCNC(=N)N)NC(=O)[C@@H]2CCCN2C(=O)[C@H](CC(=O)O)NC1=O [Ie, L-tyrosinamide, glycyl-L-cysteinyl-L-norvalyl-L-threonyl-L-α-aspartyl-L-prolyl-L-arginyl-L-cysteinyl-N5-(aminocarbonyl)-L-ornithyl-L-3-iodotyrosyl-L-glutaminyl-L-alanyl-cyclic (2→8)-disulfide-cyclic 3^5,12^3-(1H-1,2,3-triazole-1,4-diyl)] (H-GC[Orn(N3)]TDPRC[Cit][Tyr(3-I)]Q[Pra]Y-NH2; disulfide 2-8; triazole 3-12)",115 ± 56,6.6 ± 1.7
"C[C@@H](O)[C@@H]1NC(=O)[C@@H]2Cc3cn(nn3)C[C@@H](C(=O)N[C@@H](Cc3ccc(O)cc3)C(N)=O)NC(=O)[C@H](CCC(N)=O)NC(=O)[C@H](Cc3ccc(O)c(I)c3)NC(=O)[C@H](CCCNC(N)=O)NC(=O)[C@H](CSSC[C@H](NC(=O)CN)C(=O)N2)NC(=O)[C@H](CCCNC(=N)N)NC(=O)[C@@H]2CCCN2C(=O)[C@H](CC(=O)O)NC1=O [If, L-tyrosinamide, glycyl-L-cysteinyl-L-alanyl-L-threonyl-L-α-aspartyl-L-prolyl-L-arginyl-L-cysteinyl-N5-(aminocarbonyl)-L-ornithyl-L-3-iodotyrosyl-L-glutaminyl-L-alanyl-cyclic (2→8)-disulfide-cyclic 3^3,12^3-(1H-1,2,3-triazole-4,1-diyl)] (H-GC[Pra]TDPRC[Cit][Tyr(3-I)]Q[Dap(N3)]Y-NH2; disulfide 2-8; triazole 3-12)",1520 ± 116,12.5 ± 8.7
"C[C@@H](O)[C@@H]1NC(=O)[C@@H]2CCc3cn(nn3)CCC[C@@H](C(=O)N[C@@H](Cc3ccc(O)cc3)C(=O)O)NC(=O)[C@H](CCC(N)=O)NC(=O)[C@H](Cc3c[nH]c4ccccc34)NC(=O)[C@H](CCCNC(N)=O)NC(=O)[C@H](CSSC[C@H](NC(=O)CN)C(=O)N2)NC(=O)[C@H](CCCNC(=N)N)NC(=O)[C@@H]2CCCN2C(=O)[C@H](CC(=O)O)NC1=O [Ig, L-tyrosine, glycyl-L-cysteinyl-(2S)-2-aminobutanoyl-L-threonyl-L-α-aspartyl-L-prolyl-L-arginyl-L-cysteinyl-N5-(aminocarbonyl)-L-ornithyl-L-tryptophyl-L-glutaminyl-L-norvalyl-cyclic (2→8)-disulfide-cyclic 3^4,12^5-(1H-1,2,3-triazole-4,1-diyl)] (H-GC[Hpra]TDPRC[Cit]WQ[Orn(N3)]Y-OH; disulfide 2-8; triazole 3-12)",19,22 ± 1.1
"C[C@@H](O)[C@@H]1NC(=O)[C@@H]2CCc3cn(nn3)CC[C@@H](C(=O)N[C@@H](Cc3ccc(O)cc3)C(=O)O)NC(=O)[C@H](CCC(N)=O)NC(=O)[C@H](Cc3c[nH]c4ccccc34)NC(=O)[C@H](CCCNC(N)=O)NC(=O)[C@H](CSSC[C@H](NC(=O)CN)C(=O)N2)NC(=O)[C@H](CCCNC(=N)N)NC(=O)[C@@H]2CCCN2C(=O)[C@H](CC(=O)O)NC1=O [Ih, L-tyrosine, glycyl-L-cysteinyl-(2S)-2-aminobutanoyl-L-threonyl-L-α-aspartyl-L-prolyl-L-arginyl-L-cysteinyl-N5-(aminocarbonyl)-L-ornithyl-L-tryptophyl-L-glutaminyl-L-(2S)-2-aminobutanoyl-cyclic (2→8)-disulfide-cyclic 3^4,12^4-(1H-1,2,3-triazole-4,1-diyl)] (H-GC[Hpra]TDPRC[Cit]WQ[Aha]Y-OH; disulfide 2-8; triazole 3-12)",8 ± 1.5,8.5 ± 1.1
"C[C@@H](O)[C@@H]1NC(=O)[C@@H]2CCn3cc(nn3)CC[C@@H](C(=O)N[C@@H](Cc3ccc(O)cc3)C(=O)O)NC(=O)[C@H](CCC(N)=O)NC(=O)[C@H](Cc3c[nH]c4ccccc34)NC(=O)[C@H](CCCNC(N)=O)NC(=O)[C@H](CSSC[C@H](NC(=O)CN)C(=O)N2)NC(=O)[C@H](CCCNC(=N)N)NC(=O)[C@@H]2CCCN2C(=O)[C@H](CC(=O)O)NC1=O [Ii, L-tyrosine, glycyl-L-cysteinyl-(2S)-2-aminobutanoyl-L-threonyl-L-α-aspartyl-L-prolyl-L-arginyl-L-cysteinyl-N5-(aminocarbonyl)-L-ornithyl-L-tryptophyl-L-glutaminyl-L-(2S)-2-aminobutanoyl-cyclic (2→8)-disulfide-cyclic 3^4,12^4-(1H-1,2,3-triazole-1,4-diyl)] (H-GC[Aha]TDPRC[Cit]WQ[Hpra]Y-OH; disulfide 2-8; triazole 3-12)",3.4 ± 1.4,1.6 ± 0.6
"C[C@@H](O)[C@@H]1NC(=O)[C@@H]2Cc3cn(nn3)CCC[C@@H](C(=O)N[C@@H](Cc3ccccc3)C(=O)O)NC(=O)[C@H](CCC(N)=O)NC(=O)[C@H](Cc3c[nH]c4ccccc34)NC(=O)[C@H](CCCNC(N)=O)NC(=O)[C@H](CSSC[C@H](NC(=O)CN)C(=O)N2)NC(=O)[C@H](CCCNC(=N)N)NC(=O)[C@@H]2CCCN2C(=O)[C@H](CC(=O)O)NC1=O [Il, L-phenylalanine, glycyl-L-cysteinyl-L-alanyl-L-threonyl-L-α-aspartyl-L-prolyl-L-arginyl-L-cysteinyl-N5-(aminocarbonyl)-L-ornithyl-L-tryptophyl-L-glutaminyl-L-norvalyl-cyclic (2→8)-disulfide-cyclic 3^3,12^5-(1H-1,2,3-triazole-4,1-diyl)] (H-GC[Pra]TDPRC[Cit]WQ[Orn(N3)]F-OH; disulfide 2-8; triazole 3-12)",11 ± 1.4,–
"C[C@@H](O)[C@@H]1NC(=O)[C@@H]2Cc3cn(nn3)CCC[C@@H](C(=O)N[C@H](Cc3ccc(O)cc3)C(=O)O)NC(=O)[C@H](CCC(N)=O)NC(=O)[C@H](Cc3c[nH]c4ccccc34)NC(=O)[C@H](CCCNC(N)=O)NC(=O)[C@H](CSSC[C@H](NC(=O)CN)C(=O)N2)NC(=O)[C@H](CCCNC(=N)N)NC(=O)[C@@H]2CCCN2C(=O)[C@H](CC(=O)O)NC1=O [Im, D-tyrosine, glycyl-L-cysteinyl-L-alanyl-L-threonyl-L-α-aspartyl-L-prolyl-L-arginyl-L-cysteinyl-N5-(aminocarbonyl)-L-ornithyl-L-tryptophyl-L-glutaminyl-L-norvalyl-cyclic (2→8)-disulfide-cyclic 3^3,12^5-(1H-1,2,3-triazole-4,1-diyl)] (H-GC[Pra]TDPRC[Cit]WQ[Orn(N3)][dY]-OH; disulfide 2-8; triazole 3-12)",50 ± 1.2,–
"C[C@@H](O)[C@@H]1NC(=O)[C@@H]2Cc3cn(nn3)CCC[C@@H](C(=O)N[C@H](CCCNC(=N)N)C(=O)O)NC(=O)[C@H](CCC(N)=O)NC(=O)[C@H](Cc3c[nH]c4ccccc34)NC(=O)[C@H](CCCNC(N)=O)NC(=O)[C@H](CSSC[C@H](NC(=O)CN)C(=O)N2)NC(=O)[C@H](CCCNC(=N)N)NC(=O)[C@@H]2CCCN2C(=O)[C@H](CC(=O)O)NC1=O [Is, D-arginine, glycyl-L-cysteinyl-L-alanyl-L-threonyl-L-α-aspartyl-L-prolyl-L-arginyl-L-cysteinyl-N5-(aminocarbonyl)-L-ornithyl-L-tryptophyl-L-glutaminyl-L-norvalyl-cyclic (2→8)-disulfide-cyclic 3^3,12^5-(1H-1,2,3-triazole-4,1-diyl)] (H-GC[Pra]TDPRC[Cit]WQ[Orn(N3)][dR]-OH; disulfide 2-8; triazole 3-12)",59,–
